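Here, GI50 denotes the concentration required for 50% inhibition of growth. Definition used: TGI = concentration required for complete inhibition of growth.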
Experiments:
Assay in all cases: growth of human tumour cells (NCI), 384-well format
A498 renal = tested on: A498 renal
MDA-MB-231 breast = tested on: MDA-MB-231 breast
SF-295 CNS = tested on: SF-295 CNS
HS 578T breast = tested on: HS 578T breast
MCF7 breast = tested on: MCF7 breast
HOP-92 NSCLC = tested on: HOP-92 NSCLC
ACHN renal = tested on: ACHN renal
NCI-H23 lung = tested on: NCI-H23 lung
A549 NSCLC = tested on: A549 NSCLC
RXF 393 renal = tested on: RXF 393 renal
HCT-116 colon = tested on: HCT-116 colon
OVCAR-4 ovarian = tested on: OVCAR-4 ovarian
CCRF-CEM leukemia = tested on: CCRF-CEM leukemia
SNB-75 CNS = tested on: SNB-75 CNS
SK-OV-3 ovarian = tested on: SK-OV-3 ovarian
MALME-3M melanoma = tested on: MALME-3M melanoma
M14 melanoma = tested on: M14 melanoma
RPMI-8226 leukemia = tested on: RPMI-8226 leukemia
NCI-H322M lung = tested on: NCI-H322M lung
786-0 renal = tested on: 786-0 renal
U251 glioblastoma = tested on: U251 glioblastoma
SF-268 CNS = tested on: SF-268 CNS
K-562 leukemia = tested on: K-562 leukemia
SK-MEL-28 melanoma = tested on: SK-MEL-28 melanoma
MDA-MB-435 melanoma = tested on: MDA-MB-435 melanoma
UO-31 renal = tested on: UO-31 renal
KM12 colon = tested on: KM12 colon
PC-3 prostate = tested on: PC-3 prostate
EKVX NSCLC = tested on: EKVX NSCLC
IGROV1 ovarian = tested on: IGROV1 ovarian
SW-620 colon = tested on: SW-620 colon
MOLT-4 leukemia = tested on: MOLT-4 leukemia
BT-549 breast = tested on: BT-549 breast
SN12C renal = tested on: SN12C renal
OVCAR-8 ovarian = tested on: OVCAR-8 ovarian
NCI-H522 lung = tested on: NCI-H522 lung
DU-145 prostate = tested on: DU-145 prostate
COLO 205 colon = tested on: COLO 205 colon
OVCAR-3 ovarian = tested on: OVCAR-3 ovarian
CAKI-1 renal = tested on: CAKI-1 renal
NCI-H460 NSCLC = tested on: NCI-H460 NSCLC
LOX IMVI melanoma = tested on: LOX IMVI melanoma
SF-539 CNS = tested on: SF-539 CNS
UACC-62 melanoma = tested on: UACC-62 melanoma
HCT-15 colon = tested on: HCT-15 colon
MDA-MB-468 breast = tested on: MDA-MB-468 breast
NCI/ADR-RES ovarian = tested on: NCI/ADR-RES ovarian
TK-10 renal = tested on: TK-10 renal
HCC-2998 colon = tested on: HCC-2998 colon
HOP-62 NSCLC = tested on: HOP-62 NSCLC
UACC-257 melanoma = tested on: UACC-257 melanoma
NCI-H226 lung = tested on: NCI-H226 lung
HT29 colon = tested on: HT29 colon
SK-MEL-5 melanoma = tested on: SK-MEL-5 melanoma
SNB-19 CNS = tested on: SNB-19 CNS
T-47D breast = tested on: T-47D breast
HL-60(TB) leukemia = tested on: HL-60(TB) leukemia

## Cc1ccc2c(=O)c3cccc(CC(=O)O)c3oc2c1C
A498 renal
  GI50: > 100 µM
  TGI: > 100 µM
MDA-MB-231 breast
  GI50: > 100 µM
  TGI: > 100 µM
SF-295 CNS
  GI50: > 100 µM
  TGI: > 100 µM
HS 578T breast
  GI50: > 100 µM
  TGI: > 100 µM
MCF7 breast
  GI50: > 100 µM
  TGI: > 100 µM
HOP-92 NSCLC
  GI50: > 100 µM
  TGI: > 100 µM
ACHN renal
  GI50: > 100 µM
  TGI: > 100 µM
NCI-H23 lung
  GI50: > 100 µM
  TGI: > 100 µM
A549 NSCLC
  GI50: > 100 µM
  TGI: > 100 µM
RXF 393 renal
  GI50: > 100 µM
  TGI: > 100 µM
HCT-116 colon
  GI50: > 100 µM
  TGI: > 100 µM
OVCAR-4 ovarian
  GI50: > 100 µM
  TGI: > 100 µM
CCRF-CEM leukemia
  GI50: > 100 µM
  TGI: > 100 µM
SNB-75 CNS
  GI50: > 100 µM
  TGI: > 100 µM
SK-OV-3 ovarian
  GI50: > 100 µM
  TGI: > 100 µM
MALME-3M melanoma
  GI50: > 100 µM
  TGI: > 100 µM
M14 melanoma
  GI50: > 100 µM
  TGI: > 100 µM
RPMI-8226 leukemia
  GI50: > 100 µM
  TGI: > 100 µM
NCI-H322M lung
  GI50: > 100 µM
  TGI: > 100 µM
786-0 renal
  GI50: > 100 µM
  TGI: > 100 µM
U251 glioblastoma
  GI50: > 100 µM
  TGI: > 100 µM
SF-268 CNS
  GI50: > 100 µM
  TGI: > 100 µM
K-562 leukemia
  GI50: > 100 µM
  TGI: > 100 µM
SK-MEL-28 melanoma
  GI50: > 100 µM
  TGI: > 100 µM
MDA-MB-435 melanoma
  GI50: > 100 µM
  TGI: > 100 µM
UO-31 renal
  GI50: > 100 µM
  TGI: > 100 µM
KM12 colon
  GI50: > 100 µM
  TGI: > 100 µM
PC-3 prostate
  GI50: > 100 µM
  TGI: > 100 µM
EKVX NSCLC
  GI50: > 100 µM
  TGI: > 100 µM
IGROV1 ovarian
  GI50: > 100 µM
  TGI: > 100 µM
SW-620 colon
  GI50: > 100 µM
  TGI: > 100 µM
MOLT-4 leukemia
  GI50: > 100 µM
  TGI: > 100 µM
BT-549 breast
  GI50: > 100 µM
  TGI: > 100 µM
SN12C renal
  GI50: > 100 µM
  TGI: > 100 µM
OVCAR-8 ovarian
  GI50: > 100 µM
  TGI: > 100 µM
NCI-H522 lung
  GI50: > 100 µM
  TGI: > 100 µM
DU-145 prostate
  GI50: > 100 µM
  TGI: > 100 µM
COLO 205 colon
  GI50: > 100 µM
  TGI: > 100 µM
OVCAR-3 ovarian
  GI50: > 100 µM
  TGI: > 100 µM
CAKI-1 renal
  GI50: > 100 µM
  TGI: > 100 µM
NCI-H460 NSCLC
  GI50: > 100 µM
  TGI: > 100 µM
LOX IMVI melanoma
  GI50: > 100 µM
  TGI: > 100 µM
SF-539 CNS
  GI50: > 100 µM
  TGI: > 100 µM
UACC-62 melanoma
  GI50: > 100 µM
  TGI: > 100 µM
HCT-15 colon
  GI50: > 100 µM
  TGI: > 100 µM
MDA-MB-468 breast
  GI50: > 100 µM
  TGI: > 100 µM
NCI/ADR-RES ovarian
  GI50: > 100 µM
  TGI: > 100 µM
TK-10 renal
  GI50: > 100 µM
  TGI: > 100 µM
HCC-2998 colon
  GI50: > 100 µM
  TGI: > 100 µM
HOP-62 NSCLC
  GI50: > 100 µM
  TGI: > 100 µM
UACC-257 melanoma
  GI50: > 100 µM
  TGI: > 100 µM
NCI-H226 lung
  GI50: > 100 µM
  TGI: > 100 µM
HT29 colon
  GI50: > 100 µM
  TGI: > 100 µM
SK-MEL-5 melanoma
  GI50: > 100 µM
  TGI: > 100 µM
SNB-19 CNS
  GI50: > 100 µM
  TGI: > 100 µM
T-47D breast
  GI50: > 100 µM
  TGI: > 100 µM
HL-60(TB) leukemia
  GI50: > 100 µM
  TGI: > 100 µM
